Results reported in patent US12466875B2, “Supramolecular high affinity protein-binding system for purification of biomacromolecules” (THE JOHNS HOPKINS UNIVERSITY, priority 2017, dated 2025).
“Also recorded” adds a separate entry of the source.

Test system: FITC-IgG
Assay: Confocal fluorescence imaging with FITC-IgG
Type: binding
Settings: 2 μM FITC-IgG in PBS pH 7.4
Source text: FIGS. 10A-C. […] (A) Image of Rhodamine B fluorescence. (B) Image of FITC fluorescence and (C) merged image of (A) and (B). Scale bar: 20 μm.
To better visualize the interactions between C12-Z33 immunofibers and IgG, labelling the C12-Z33 with the fluorescent dye (Rhodamine B) allows for direct imaging of fluorescent immunofibers and FITC-IgG under a confocal laser scanning microscope. Rhodamine B has been extensively used for staining biomaterials. […] The self-assembled fibrous morphology in PBS was confirmed using TEM (FIG. 9C). 100 μM RB-C12-Z33 diluted from a 1 mM stock solution and 2 μM FITC-IgG were premixed in PBS. 30 μl solution was spotted on a clean microscope slide right before imaging and covered by a coverslip to obtain a thin layer of liquid.

Substance: RB-C12-Z33: Rhodamine B labelled C12-Z33; lysine added at N-terminal of Z33, Rhodamine B and C12 conjugated to its amine groups
- fluorescence of FITC-IgG after incubation (confocal): co-localization of the fluorescence signal; also recorded: co-localization of fluorescence signals
